In patent publication US20100279327A1, “METHOD OF TREATING DISEASES WITH PARP INHIBITORS” (BiPar Sciences, Inc., priority 2006, published 2010):

Test system: PARP1 (poly (ADP-ribose) polymerase family, member 1)
Assay: PARP1 mRNA expression, Affymetrix human genome GeneChip (probe set 208644_at), Diff/X and e-Northern
Settings: Normal; for PARP1 expression, Experiment Mean: patients taking the medication, signal intensity of 208644_at; for PARP1 Fold change (FC): patients taking vs patients not taking the medication
Excerpt: GeneChip arrays have been widely used for monitoring mRNA expression in many areas of biomedical research. The high-density oligonucleotide array technology allows researchers to monitor tens of thousands of genes in a single hybridization experiment as they are expressed differently in tissues and cells. The expression profile of a mRNA molecule of a gene is obtained by the combined intensity information from probes in a probe set, which consists of 11-20 probe pairs of oligonucleotides of 25 by in length, interrogating a different part of the sequence of a gene.
The gene expressions were assessed using the Affymetrix human genome genechips (45,000 gene transcripts covering 28,473 UniGene clusters). Approximately 5 μg total RNA from each sample were labeled using high yield transcript labeling kit and labeled RNAs were hybridized, washed, and scanned according to manufacturer's specifications (Affymetrix, Inc., Santa Clara, Calif.). Affymetrix Microarray Suite 5.0 software (MASS) was used to estimate transcript signal levels from scanned images (Affymetrix). The signals on each array were normalized to a trimmed mean value of 500, excluding lowest 2% and highest 2% of the signals. An Affymetrix probe set representing a unique Genbank sequence is referred as a probe or gene hereafter for convenience. To verify any errors in the expressions caused by image defects, the correlation coefficient of each array to an idealized distribution was determined where the idealized distribution is mean of all arrays. The genes are filtered from the remaining arrays using detection P value reported by MASS. The genes having P>0.065 in 95% of the arrays are eliminated and all other signals are included for statistical comparisons of classes.
The PARP1 gene is represented on the HG-U133A array by a single probe set with the identifier W208644_at”. All results in this report were generated based on the MASS expression signal intensities for this probe set and will be referred to as “PARP1”.
The PARP1 gene is represented on the HG-U133A array by a single probe set with the identifier “208644_at”. All results in this report were generated based on the MASS expression signal intensities for this probe set and will be referred to as “PARP1”. In addition, the seven genes, BRCA1, BRCA2, RAD51, MRE11, p53, PARP2 and MUCIN 16, are represented on the HG-U133A/B array set by 11 informative probe sets. Three probe sets were excluded from this analysis because they were considered to be non-responsive on the array.
RNA is evaluated for quality and integrity (via Agilent Bioanalyzer derived […] ratio and RNA integrity number (RIN)), purity (via absorbance ratio at A260/A280), and quantity (via absorbance at A260 or alternative assay (i.e. ribogreen)), Quantity and purity of cRNA synthesis product is assessed using UV absorbance. Quality of cRNA synthesis is assessed using either the Agilent Bioanalyzer or a MOPS agarose gel. Array quality is evaluated using a proprietary high throughput application by which arrays are evaluated against several strict objective standards such as 5′/3′ GAPDH ratio, signal/noise ratio. and background as well as over thirty additional metrics (e.g. outlier, vertical variance). Data generated throughout the process is managed within the quality system to ensure data integrity of the data.
23, 122, and 57 pathologically normal tissue samples were used to determine baseline expression of the PARP1 gene in endometroid, lung, and prostate tissue, respectively. The mean and 90%, 95%, 99%, and 99.9% upper confidence limits for an individual predicted value (UCLs) were calculated. Because we are assessing the likelihood that individual samples external to the normal set are within the baseline distribution, the prediction interval, rather than the confidence interval for the mean, was selected to estimate the expected range for future individual measurements. […]

[1] = Superior Temporal Gyrus (Brodmann Area 22)
[2] = Stomach, positive = up-regulated, negative = down-regulated

Molecule | PARP1 expression, Experiment Mean (Stomach) | PARP1 Fold change (FC) [2] | other results
CC(=O)Nc1ccc(O)cc1 [Acetaminophen] | – | – | PARP1 expression, Experiment Mean [1]: 290.49; PARP1 Fold change (FC) [1]: 1.28
CC(C)NCC(O)COc1ccc(CC(N)=O)cc1 (centres unmarked) [Atenolol] | – | – | PARP1 expression, Experiment Mean (Ovary): 138.57; PARP1 Fold change (FC) (Ovary, negative = down-regulated): −1.22
CC(C)c1c(C(=O)Nc2ccccc2)c(-c2ccccc2)c(-c2ccc(F)cc2)n1CC[C@@H](O)C[C@@H](O)CC(=O)O [Atorvastatin] | 176.85 | −1.24 | –
Estrogens | 228.75 | 1.27 | –
